Measured values from US7276536B2, “Method for increasing the bioavailability of the active form of S-[2-([[1-(2-ethylbutyl)cyclohexyl]carbonyl]amino) phenyl] 2-methylpropanethioate” (Japan Tobacco Inc., priority 2003, dated 2007).

How the values were obtained:
[1] = biological target: T1, cholesteryl ester transfer protein (CETP) (Homo sapiens, UniProt P11597); experiment: CETP activity change from baseline after 900 mg oral Compound I, fed vs fasted (Example 2); assay type: in vivo, human (Caucasian male patients); details: mean
T1 construct: from tissue; host or cells: samples from dosed male patients (CETP is described as a plasma protein)
T1 sequence (P11597 18-493): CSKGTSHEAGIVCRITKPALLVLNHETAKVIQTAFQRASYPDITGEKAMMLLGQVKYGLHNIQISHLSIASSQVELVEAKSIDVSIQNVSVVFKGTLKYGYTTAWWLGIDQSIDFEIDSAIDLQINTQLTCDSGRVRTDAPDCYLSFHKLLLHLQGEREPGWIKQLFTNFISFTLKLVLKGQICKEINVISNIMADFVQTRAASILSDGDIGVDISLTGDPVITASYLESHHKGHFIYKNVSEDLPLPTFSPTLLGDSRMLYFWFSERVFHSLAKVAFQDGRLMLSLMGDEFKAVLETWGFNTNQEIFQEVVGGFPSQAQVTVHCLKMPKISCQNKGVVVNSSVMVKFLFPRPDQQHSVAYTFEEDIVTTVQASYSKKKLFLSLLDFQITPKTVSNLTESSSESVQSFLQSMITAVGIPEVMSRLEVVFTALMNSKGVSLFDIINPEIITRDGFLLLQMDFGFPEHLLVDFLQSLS
Procedure: Administration, dosing, and sampling schedules were substantially similar to those described in Example 1.
The procedure for determining CETP activity was substantially similar to the procedures described in Tollefson et al., Methods Enzymol., 129, 797-816 (1986), and Kato et al., J. Biol. Chem., 264, 4082-4087 (1989).
CETP activity and changes from baseline (pre-dose) were measured, and the resulting data is summarized in Table 2 as percentage change from baseline. The mean changes from baseline (pre-dose) in CETP activity over time are set out in the plot of FIG. 3.

[2] = Food-effect pharmacokinetic study, 600 mg oral Compound I, fed vs fasted (Example 4); assay type: in vivo, human (Japanese male volunteers)
Procedure: Administration, dosing, and sampling schedules were commensurate with those described in Example 1. […] Patients were administered two tablets of 300 mg each. The tablets were prepared as described in Example 1.

**Q.** With `CCC(CC)CC1(C(=O)Nc2ccccc2SC(=O)C(C)C)CCCCC1` [Compound I, S-[2-([[1-(2-ethylbutyl)cyclohexyl]carbonyl]amino)phenyl]2-methylpropanethioate] as the molecule, how does the “Percent change from pre-dose in CETP activity” value (“Percent change from pre-dose” below) ([1]; Fasted, 1 h) read?
**A.** 1%

**Q.** What about the “Percent change from pre-dose” value ([1]; Fasted, 2 h) of the same molecule?
**A.** 2%

**Q.** And the “Percent change from pre-dose” value ([1]; Fasted, 4 h)?
**A.** −4%

**Q.** And the “Percent change from pre-dose” value ([1]; Fasted, 6 h)?
**A.** −10%

**Q.** What about the “Percent change from pre-dose” value ([1]; Fasted, 8 h) of the same molecule?
**A.** −15%

**Q.** What about the “Percent change from pre-dose” value ([1]; Fasted, 24 h) of the same molecule?
**A.** −10%

**Q.** What about the “Percent change from pre-dose” value ([1]; Fed, 1 h) of the same molecule?
**A.** −1%

**Q.** What about the “Percent change from pre-dose” value ([1]; Fed, 2 h) of the same molecule?
**A.** −16%

**Q.** What about the “Percent change from pre-dose” value ([1]; Fed, 4 h) of the same molecule?
**A.** −44%

**Q.** And the “Percent change from pre-dose” value ([1]; Fed, 6 h)?
**A.** −59%

**Q.** And the “Percent change from pre-dose” value ([1]; Fed, 8 h)?
**A.** −58%

**Q.** And the “Percent change from pre-dose” value ([1]; Fed, 24 h)?
**A.** −34%

**Q.** What about the “AUC0-∞ times higher with food as compared to without food” value [2] of the same molecule?
**A.** ~2 times
